Results: US20260294884A1 (Insilico Medicine IP Limited, priority 2023, published 2026)

Experiments:
KAT6A = target: T1, KAT6A (Homo sapiens, UniProt Q92794); experiment: KAT6A biochemical assay (radiometric [3H]-acetyl CoA, biotinylated H4 (1-30) peptide); settings: 60 min reaction, room temperature
T1 construct: purchased Active Motif
Description: Inhibition of KAT6A enzymatic activity by test compounds was determined using a radiometric 384-well format assay. A 10-point serial dilution of the test compounds were conducted in DMSO and then a volume of 200 nL was transferred into 384-well assay plate by Echo (Labcyte). 10 μL of 2×enzyme solution (5 nM KAT6A (Active Motif) in assay buffer (50 mM Tris —HCl pH 8.0, 50 mM KCl, 0.1 mM EDTA, 5% glycerol, 1 mM DTT)) was dispensed into assay plate except for low control wells, in which 10 μL of assay buffer was transferred. The plate was incubated at room temperature for 15 min before addition of 10 μL of 2×[^3H]-acetyl coenzyme A (Ac-COA) and substrate peptide mix solution (500 nM (KAT6A) [^3H]-Ac-COA (PerkinElmer) and 800 nM (KAT6A) biotinylated H4 (1-30) peptide (GL Biochem) in assay buffer) to each well to start reaction. The plate was incubated at room temperature for 60 min (KAT6A), and then the reaction was stopped by adding 10 μL of stop solution (cold Ac-COA (Cayman) in 1×assay buffer). […] The plate was read on Microbeta and the inhibition percentage of each compound treated well was calculated based on the equation inh %=(Max-sample)/(Max-Min)*100 where Max is signal from high control wells with enzyme, and Min is signal from low control wells with assay buffer only. […]

Caco-2 cells = experiment: Permeability, Caco-2 assay; format: in vitro ADME
Description: Permeability of test compounds was determined in Caco-2 Assay. Caco-2 cells purchased from ATCC were seeded onto […] membranes (PET) in 96-well Corning Insert plates at 1×10^5 cells/cm^2, and refreshed medium every 4~5 days until to the 21st to 28th day for confluent cell monolayer formation. The transport buffer in the study was HBSS with 10.0 mM HEPES at pH 7.40±0.05. Test compound was tested at […] bi-directionally in duplicate. Digoxin was tested at 10.0 μM bi-directionally in duplicate, while nadolol and metoprolol were tested at 2.00 μM in A to B direction in duplicate. Final DMSO concentration was adjusted to less than 1%. The plate was incubated for 2 hours in CO2 incubator at 37±1° C., with 5% CO2 at saturated humidity without shaking. And all samples after mixed with acetonitrile containing internal standard were centrifuged at 3200×g for 10 min. For nadolol and metoprolol, 200 μL supernatant solution was diluted with 600 μL ultra-pure water for LC-MS/MS analysis. For digoxin and test compounds, 200 μL supernatant solution was diluted with 200 μL ultra-pure water for LC-MS/MS analysis. Concentrations of test and control compounds in starting solution, donor solution, and receiver solution were quantified by LC-MS/MS methodologies, using peak area ratio of analyte/internal standard. After transport assay, lucifer yellow rejection assay was applied to determine the Caco-2 cell monolayer integrity.

[1] = Kinetic solubility in 50 mM phosphate buffer (pH 7.4); format: physicochemical; settings: versus compound 47
Description: 10 μL of 10 mM in DMSO of test and control compounds was added into lower chambers of whatman miniuniprep vials, respectively. 490 μL of 50 mM PB (pH 7.4) was added into lower chambers of the whatman miniuniprep vials, respectively. The solubility samples were vortexted for at least 2 minutes. The miniuniprep vials were shaken on a shaker for 24 hours at room temperature at the speed of 800 rpm and then centrifuged for 20 minutes (eg. 4000 rpm). The miniunipreps were compressed to prepare the filtrates for injection into HPLC system to calculate the concentration with standard curve.

T1 sequence (Q92794 whole entry): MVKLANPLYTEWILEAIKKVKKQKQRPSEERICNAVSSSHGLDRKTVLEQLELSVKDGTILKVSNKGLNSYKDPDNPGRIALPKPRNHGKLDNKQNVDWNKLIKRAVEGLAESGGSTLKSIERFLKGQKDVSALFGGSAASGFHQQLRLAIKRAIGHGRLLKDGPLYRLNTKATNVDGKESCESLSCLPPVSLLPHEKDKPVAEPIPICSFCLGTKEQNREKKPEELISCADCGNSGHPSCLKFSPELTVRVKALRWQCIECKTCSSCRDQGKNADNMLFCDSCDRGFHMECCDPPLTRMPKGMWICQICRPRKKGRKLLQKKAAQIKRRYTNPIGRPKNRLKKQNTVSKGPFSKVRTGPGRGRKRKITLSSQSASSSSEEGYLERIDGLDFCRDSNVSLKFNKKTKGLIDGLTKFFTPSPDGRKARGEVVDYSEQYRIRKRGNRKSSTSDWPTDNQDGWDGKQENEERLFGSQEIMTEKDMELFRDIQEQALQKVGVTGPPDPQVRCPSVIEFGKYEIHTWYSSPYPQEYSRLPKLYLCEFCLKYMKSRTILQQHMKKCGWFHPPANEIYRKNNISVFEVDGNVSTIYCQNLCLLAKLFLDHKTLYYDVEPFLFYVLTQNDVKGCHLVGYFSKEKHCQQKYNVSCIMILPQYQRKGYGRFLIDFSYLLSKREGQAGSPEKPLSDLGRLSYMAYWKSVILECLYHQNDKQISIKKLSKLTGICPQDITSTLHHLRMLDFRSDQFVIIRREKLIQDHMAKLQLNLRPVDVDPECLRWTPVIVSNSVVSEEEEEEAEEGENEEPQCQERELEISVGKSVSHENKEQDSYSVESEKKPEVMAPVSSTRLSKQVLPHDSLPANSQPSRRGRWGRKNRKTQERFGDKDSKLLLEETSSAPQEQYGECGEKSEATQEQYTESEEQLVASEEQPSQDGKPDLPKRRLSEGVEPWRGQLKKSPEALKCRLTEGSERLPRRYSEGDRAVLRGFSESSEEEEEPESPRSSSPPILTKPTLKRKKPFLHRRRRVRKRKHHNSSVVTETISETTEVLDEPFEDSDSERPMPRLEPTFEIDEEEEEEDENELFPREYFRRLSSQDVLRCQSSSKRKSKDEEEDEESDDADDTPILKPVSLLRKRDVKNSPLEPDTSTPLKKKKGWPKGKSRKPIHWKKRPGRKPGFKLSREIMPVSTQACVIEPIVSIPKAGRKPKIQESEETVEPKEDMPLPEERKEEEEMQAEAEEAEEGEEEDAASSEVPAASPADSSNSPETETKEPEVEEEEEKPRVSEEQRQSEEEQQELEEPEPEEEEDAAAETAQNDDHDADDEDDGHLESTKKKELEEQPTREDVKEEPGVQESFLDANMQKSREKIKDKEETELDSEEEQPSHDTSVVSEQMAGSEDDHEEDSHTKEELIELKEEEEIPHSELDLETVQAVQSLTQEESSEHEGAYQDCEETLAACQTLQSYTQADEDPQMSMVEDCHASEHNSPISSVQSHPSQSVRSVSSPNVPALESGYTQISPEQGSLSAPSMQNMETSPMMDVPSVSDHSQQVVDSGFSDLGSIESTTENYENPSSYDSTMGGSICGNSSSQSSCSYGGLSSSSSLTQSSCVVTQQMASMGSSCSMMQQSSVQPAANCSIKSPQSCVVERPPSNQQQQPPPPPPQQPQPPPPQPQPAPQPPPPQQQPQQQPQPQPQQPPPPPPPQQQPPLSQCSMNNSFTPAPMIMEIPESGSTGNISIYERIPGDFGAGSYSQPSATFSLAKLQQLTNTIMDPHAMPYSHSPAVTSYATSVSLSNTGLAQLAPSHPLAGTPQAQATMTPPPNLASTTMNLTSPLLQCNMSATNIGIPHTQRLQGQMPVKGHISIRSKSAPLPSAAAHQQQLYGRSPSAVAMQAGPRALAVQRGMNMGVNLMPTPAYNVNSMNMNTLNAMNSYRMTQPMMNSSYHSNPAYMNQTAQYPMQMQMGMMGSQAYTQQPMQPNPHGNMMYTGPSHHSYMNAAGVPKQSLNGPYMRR

Row | Compound | IC50 (KAT6A) | Mean Papp A to B (Caco-2 cells; Caco-2, pH 7.40, 2 hours, 37 °C, A to B) | permeability, comparison with corresponding compound having X as carbon (Caco-2 cells; versus compound 47) | kinetic solubility, comparison with otherwise identical compound having X as carbon [1]
1 | COc1ccccc1S(=O)(=O)Nc1noc2cc(Oc3ccccn3)cc(OC(F)F)c12 [Compound 27, N-(4-(difluoromethoxy)-6-(pyridin-2-yloxy)benzo[d]isoxazol-3-yl)-2-methoxybenzenesulfonamide] | 100 to 1000 nM |  |  | 
2 | COc1cccc(OC)c1S(=O)(=O)Nc1noc2cc(Oc3cccnn3)cc(OC(F)F)c12 [Compound 29, N-(4-(difluoromethoxy)-6-(pyridazin-3-yloxy)benzo[d]isoxazol-3-yl)-2,6-dimethoxybenzenesulfonamide] | 100 to 1000 nM |  |  | 
3 | COc1cccc(OC)c1S(=O)(=O)Nc1noc2cc(Oc3nccs3)c3c(c12)OCCC3 [Compound 35, 2,6-dimethoxy-N-(5-(thiazol-2-yloxy)-3,4-dihydro-2H-chromeno[8,7-d]isoxazol-9-yl)benzenesulfonamide] |  | 8.59 10^-6 cm/s | improved permeability | improved kinetic solubility
